Drawing on ChEMBL document CHEMBL5512605, “Targeted regulated cell death with small molecule compounds in colorectal cancer: Current perspectives of targeted therapy and molecular mechanisms” (Eur J Med Chem, 2024), this text covers IC50, Kd and IC for 10 compounds.

A word on the IC50: it is the concentration that inhibits the measured activity by half. The term Kd denotes the constant that tells how readily two partners part at equilibrium.

For assay [1], the system named is RKO. Nature of the assay: Antiproliferative activity against human RKO cells assessed as inhibition of cell growth. It counts as functional, cell-based.
The target in assay [2] is T1, Signal transducer and activator of transcription 3 (Homo sapiens, UniProt P40763). Nature of the assay: Binding affinity to N-terminal his tagged recombinant human STAT3 expressed in insect cells assessed as dissociation constant by biolayer interferometry assay. Also noted: species or system Insect cell.
T1 sequence (P40763 whole entry): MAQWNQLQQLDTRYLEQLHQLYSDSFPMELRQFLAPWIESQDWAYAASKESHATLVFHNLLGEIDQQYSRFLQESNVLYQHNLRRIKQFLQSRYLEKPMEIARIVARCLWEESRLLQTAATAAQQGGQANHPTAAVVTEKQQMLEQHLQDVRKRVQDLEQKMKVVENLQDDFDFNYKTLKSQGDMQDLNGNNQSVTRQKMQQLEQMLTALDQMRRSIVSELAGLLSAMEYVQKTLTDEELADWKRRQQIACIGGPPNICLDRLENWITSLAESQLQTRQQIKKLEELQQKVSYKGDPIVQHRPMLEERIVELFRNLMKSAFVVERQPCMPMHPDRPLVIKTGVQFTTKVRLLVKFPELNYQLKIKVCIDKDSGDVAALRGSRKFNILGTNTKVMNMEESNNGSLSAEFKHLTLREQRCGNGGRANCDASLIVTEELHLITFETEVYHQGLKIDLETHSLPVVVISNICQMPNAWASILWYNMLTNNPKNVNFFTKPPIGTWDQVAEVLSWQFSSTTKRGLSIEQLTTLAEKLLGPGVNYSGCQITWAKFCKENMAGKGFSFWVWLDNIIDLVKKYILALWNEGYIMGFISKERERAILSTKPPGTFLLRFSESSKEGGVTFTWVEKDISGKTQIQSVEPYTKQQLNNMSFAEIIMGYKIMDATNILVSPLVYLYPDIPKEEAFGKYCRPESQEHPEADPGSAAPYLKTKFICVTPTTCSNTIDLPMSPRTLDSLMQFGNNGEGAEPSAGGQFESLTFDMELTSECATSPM
The test system of assay [3] is HCT-116. Kind of assay: Cytotoxicity against human HCT-116 cells assessed as inhibition of cell proliferation measured after 24 hrs by MTT assay. It counts as functional, cell-based. Particulars: HCT-116, 24 h. In general terms: Tetrazolium dyes change colour on reduction, which living cells bring about.
The test system of assay [4] is RKO. Nature of the assay: Cytotoxicity against human RKO cells assessed as inhibition of cell proliferation measured after 24 hrs by MTT assay. It is filed as functional, cell-based.
For assay [5], the system named is SW-620. Nature of the assay: Antiproliferative activity against human SW620 cells assessed as inhibition of cell growth by CellTiter 96 Aqueous One Solution Cell Proliferation Assay. It is filed as functional, cell-based.
The subject of assay [6] is SW480. Kind of assay: Antiproliferative activity against human SW480 cells assessed as inhibition of cell growth by CellTiter 96 Aqueous One Solution Cell Proliferation Assay. It counts as functional, cell-based.
Assay [7] deals with LoVo. Kind of assay: Antiproliferative activity against human LoVo cells assessed as inhibition of cell growth by CellTiter 96 Aqueous One Solution Cell Proliferation Assay. It is filed as functional, cell-based.
In assay [8] the target is T1, Signal transducer and activator of transcription 3. Nature of the assay: Binding affinity to GFP tagged STAT3 (unknown origin) assessed as dissociation constant by microscale thermophoresis analysis.
Assay [9] relates to HCT-116. Kind of assay: Cytotoxicity against human HCT-116 cells assessed as reduction in cell viability by MTT assay. It counts as functional.
Assay [10] relates to RKO. Nature of the assay: Cytotoxicity against human RKO cells assessed as reduction in cell viability by MTT assay. It counts as functional.
Assay [11] relates to HT-29. Kind of assay: Cytotoxicity against human HT-29 cells assessed as reduction in cell viability by MTT assay. It counts as functional.
Assay [12] relates to SW480. Kind of assay: Cytotoxicity against human SW480 cells assessed as reduction in cell viability by MTT assay. It is filed as functional.
For assay [13], the system named is SW-620. Kind of assay: Antiproliferative activity against human SW620 cells incubated for 72 hrs by CCK-8 method. It counts as functional.
Assay [14] concerns HCT-116. Kind of assay: Antiproliferative activity against human HCT-116 cells incubated for 72 hrs by CCK-8 method. It counts as functional.
Assay [15] concerns the target P2X purinoceptor 7 (Homo sapiens, UniProt Q99572). Kind of assay: Antagonist activity at P2X7R (unknown origin).
Assay [16] has as its system HCT-116. Nature of the assay: Antiproliferative activity against human HCT-116 cells assessed as inhibition of cell viability by CellTiter-Glo Luminescent Assay. It counts as functional. In general terms: Cellular ATP, detected with luciferase, serves as a proxy for viable cell number.
The subject of assay [17] is DLD-1. Kind of assay: Antiproliferative activity against human DLD-1 cells assessed as inhibition of cell viability by CellTiter-Glo Luminescent Assay. It is filed as functional.
The subject of assay [18] is LoVo. Nature of the assay: Antiproliferative activity against human LoVo cells assessed as inhibition of cell viability by CellTiter-Glo Luminescent Assay. It is filed as functional.
The test system of assay [19] is HT-29. Kind of assay: Antiproliferative activity against human HT-29 cells assessed as inhibition of cell viability by CellTiter-Glo Luminescent Assay. It is filed as functional.
Assay [20] relates to SW-620. Nature of the assay: Antiproliferative activity against human SW-620 cells assessed as inhibition of cell viability by CellTiter-Glo Luminescent Assay. It counts as functional.
The subject of assay [21] is HT-29. Nature of the assay: Cytotoxicity against human HT-29 cells assessed as inhibition of cell viability by MTT assay. It counts as functional.
Assay [22] has as its system SW480. Nature of the assay: Cytotoxicity against human SW480 cells assessed as inhibition of cell viability by MTT assay. It is filed as functional.
The test system of assay [23] is RKO. Kind of assay: Cytotoxicity against human RKO cells assessed as inhibition of cell proliferation measured after 48 hrs by MTT assay. It is filed as functional, cell-based.
The subject of assay [24] is SW-620. Nature of the assay: Cytotoxicity against human SW620 cells assessed as inhibition of cell proliferation measured after 48 hrs by MTT assay. It counts as functional, cell-based. The note with it: SW-620, 48 h.
Assay [25] relates to HCT-116. Nature of the assay: Cytotoxicity against human HCT-116 cells assessed as inhibition of cell proliferation measured after 48 hrs by MTT assay. It is filed as functional, cell-based. The note with it: HCT-116, 48 h.
The test system of assay [26] is HT-29. Nature of the assay: Antiproliferative activity against human HT-29 cells measured after 72 hrs by SRB method. It is filed as functional, cell-based. The note with it: HT-29, 72 h. Background: Sulforhodamine B stains cellular protein and so reports cell mass.
Assay [27] deals with HCT-116. Kind of assay: Antiproliferative activity against human HCT-116 cells measured after 72 hrs by SRB method. It counts as functional, cell-based. Particulars: HCT-116, 72 h.
Assay [28] has as its system HCT-116. Nature of the assay: Cytotoxicity against human HCT-116 cells measured after 72 hrs. It is filed as functional, cell-based. Particulars: HCT-116, 72 h.
The test system of assay [29] is HT-29. Kind of assay: Cytotoxicity against human HT-29 cells measured after 72 hrs. It is filed as functional, cell-based. Particulars: HT-29, 72 h.
In assay [30] the test system is RKO. Nature of the assay: Cytotoxicity against human RKO cells measured after 72 hrs. It is filed as functional, cell-based.
Assay [31] concerns SW48. Kind of assay: Cytotoxicity against human SW48 cells measured after 72 hrs. It counts as functional, cell-based. The note with it: SW48, 72 h.
Assay [32] relates to HCT-116. Nature of the assay: Cytotoxicity against p53 null human HCT-116 cells measured after 72 hrs. It counts as functional, cell-based. The note with it: HCT-116, 72 h.

Sequence of P2X purinoceptor 7 (Q99572 whole entry): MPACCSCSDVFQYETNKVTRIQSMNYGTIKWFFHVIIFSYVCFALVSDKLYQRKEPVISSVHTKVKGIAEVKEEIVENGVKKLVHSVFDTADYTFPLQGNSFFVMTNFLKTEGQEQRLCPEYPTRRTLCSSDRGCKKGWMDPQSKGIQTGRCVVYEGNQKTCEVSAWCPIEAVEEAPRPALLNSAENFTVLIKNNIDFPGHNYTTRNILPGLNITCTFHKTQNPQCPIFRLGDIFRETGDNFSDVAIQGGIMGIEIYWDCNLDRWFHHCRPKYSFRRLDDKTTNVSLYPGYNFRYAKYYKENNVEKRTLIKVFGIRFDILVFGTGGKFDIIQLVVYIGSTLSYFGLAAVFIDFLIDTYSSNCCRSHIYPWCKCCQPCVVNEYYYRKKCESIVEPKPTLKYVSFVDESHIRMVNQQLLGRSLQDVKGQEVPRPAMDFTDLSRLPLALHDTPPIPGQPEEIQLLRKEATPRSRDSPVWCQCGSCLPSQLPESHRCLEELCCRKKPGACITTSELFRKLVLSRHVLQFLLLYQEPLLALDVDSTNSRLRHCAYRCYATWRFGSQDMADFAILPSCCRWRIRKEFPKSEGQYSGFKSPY

As to `COc1cc(-c2[o+]c3cc(O)cc(O[C@@H]4O[C@H](CO)[C@@H](O)[C@H](O)[C@H]4O)c3cc2O[C@@H]2O[C@H](CO[C@@H]3O[C@@H](C)[C@H](OC(=O)/C=C/c4ccc(O)cc4)C[C@H]3O)[C@@H](O)[C@H](O)[C@H]2O)cc(O)c1O`, in [1], the IC50 is 172 µM.

For `Cc1ccc(COc2ccc3c(c2)C(=O)C(=O)C2=C3OC(C)C2)cc1` (configuration not stated), the Kd in assay [2] was determined as 6.6 µM. For the same compound, the results for the IC50 in assay [3] and in assay [4] were 4.07 µM and 3.78 µM, respectively.

`CC(C)=CCc1cc(-c2coc3cc(O)c(CC=C(C)C)c(O)c3c2=O)cc(O)c1O`: the values for the IC50 in assay [5], in assay [6] and in assay [7] were 7.33 µM, 6.97 µM and 7.05 µM, respectively.

Regarding `O=C1C(Nc2ccccc2N2CCNCC2)=CC2=NS(=O)(=O)c3cccc1c32`, the Kd in assay [8] was 3.3 µM. For the same compound, the IC in assay [9], in [10], in [11] and in assay [12] was 3 µM in each case.

With `Clc1cccc(-c2nnnn2Cc2cccnc2)c1Cl`, the IC in [13] and in assay [14] was 10 µM each time. This compound also registered an IC50 in [15] of 0.13 µM.

As to `C[C@@H]1CN(CC(=O)N2CC(C)(C)c3nc(CO)c(Cc4ccc(F)cc4)cc32)[C@@H](CN2CCOC[C@H]2C)CN1` [ASTX-660], the IC in assay [16], in assay [17], in [18], in [19] and in assay [20] was 0.5 nM each time.

On to `CC[C@@]1(O)C(=O)OCc2c1cc1n(c2=O)Cc2cc3cc4c(cc3nc2-1)OCO4`, for which the IC in assay [21] and in assay [22] was 0 nM each time.

In the case of `CC(=O)O[C@H]1[C@H]2O[C@]23[C@@H]2CC[C@@H]4C[C@@H](O)CC[C@]4(C)[C@H]2CC[C@]3(C)[C@H]1c1ccc(=O)oc1` [CINOBUFAGIN], the figures for the IC50 in [23], in assay [24] and in [25] were 0.182 µM, 0.364 µM and 0.782 µM, respectively.

As to `O=C(Nc1ccc([N+](=O)[O-])cc1Cl)c1cc(Cl)ccc1O` [NICLOSAMIDE], the IC50 stood at 4.66 µM in [26] and 0.32 µM in assay [27].

Regarding `O=C(O)CCCCC1CCSS1` (stereo not drawn) [LIPOIC ACID, ALPHA], the IC50 in assay [28] turned out to be 266 µM; in [29], 266 µM; in assay [30], 266 µM; in assay [31] it was 266 µM; in [32], 890 µM.
